Data taken from PMC8175240, “Integrase-derived peptides together with CD24-targeted lentiviral particles inhibit the growth of CD24 expressing cancer cells” (Oncogene, 2021).
Residues, ends and D or L forms follow the SMILES beside them.

Tested on: CHO-WBL cells
Experiment: Chromosomal aberration assay (genotoxicity)
Format: cell-based, Chinese hamster
Details: for % Gaps / % Structural aberration without gaps / Cells with endoreduplication (%) / Cells with polyploidy (%) / Cytotoxicity (%) / % Structural aberrant cells: harvest 22 h; for Cytotoxicity (%): cell growth inhibition relative to negative control; for % Structural aberrant cells: cells with only gaps not included
Description: All cells were cultured for 22 h after initiation of INS treatment.

[1] = INS 10 µg/mL, +S9, 3 h treatment
[2] = INS 10 µg/mL, −S9, 3 h treatment
[3] = INS 10 µg/mL, −S9, 22 h treatment
[4] = INS 25 µg/mL, +S9, 3 h treatment
[5] = INS 25 µg/mL, −S9, 3 h treatment
[6] = INS 25 µg/mL, −S9, 22 h treatment
[7] = INS 50 µg/mL (precipitate), +S9, 3 h treatment
[8] = INS 50 µg/mL (precipitate), −S9, 3 h treatment
[9] = INS 50 µg/mL (precipitate), −S9, 22 h treatment

CC[C@H](C)[C@H](NC(=O)[C@H](Cc1ccccc1)NC(=O)[C@@H](NC(=O)[C@H](C)NC(=O)[C@H](CCSC)NC(=O)[C@H](CCC(N)=O)NC(=O)[C@@H](NC(=O)[C@H](C)NC(=O)[C@@H](NC(=O)[C@@H](N)Cc1c[nH]c2ccccc12)[C@@H](C)O)C(C)C)C(C)C)C(=O)N[C@@H](Cc1c[nH]cn1)C(=O)N[C@@H](CC(N)=O)C(=O)N[C@@H](Cc1ccccc1)C(=O)N[C@@H](CCCCN)C(=O)N[C@@H](CCCNC(=N)N)C(=O)N[C@@H](CCCCN)C(=O)O [INS] (H-WTAVQMAVFIHNFKRK-OH)
46%: Cytotoxicity (%) [7]
5%: Cytotoxicity (%) [1]
7.3%: Cells with endoreduplication (%) [7]
negative: Induction of structural chromosomal aberrations (conclusion) (10-50 µg/mL, ±S9, 3 and 22 h)
−7%: Cytotoxicity (%) [8]
0.7%: % Gaps [2] | % Gaps [3] | % Gaps [8]
0.3%: % Gaps [1] | % Gaps [4] | Cells with endoreduplication (%) [4] | % Gaps [5] | Cells with endoreduplication (%) [5] | % Gaps [7] | % Gaps [9]
1.3%: % Structural aberration without gaps [2] | % Structural aberrant cells [2] | % Structural aberration without gaps [8] | % Structural aberrant cells [8] | % Structural aberration without gaps [9] | % Structural aberrant cells [9]
0.0%: Cells with endoreduplication (%) [1] | Cells with polyploidy (%) [1] | Cells with endoreduplication (%) [2] | Cells with polyploidy (%) [2] | Cells with endoreduplication (%) [3] | Cells with polyploidy (%) [3] | Cells with polyploidy (%) [4] | Cells with polyploidy (%) [5] | % Gaps [6] | Cells with endoreduplication (%) [6] | Cells with polyploidy (%) [6] | Cells with polyploidy (%) [7] | Cells with endoreduplication (%) [8] | Cells with polyploidy (%) [8] | Cells with endoreduplication (%) [9] | Cells with polyploidy (%) [9]
−10%: Cytotoxicity (%) [5]
1.7%: % Structural aberration without gaps [7] | % Structural aberrant cells [7]
−1%: Cytotoxicity (%) [3] | Cytotoxicity (%) [4] | Cytotoxicity (%) [9]
4%: Cytotoxicity (%) [2]
1.0%: % Structural aberration without gaps [1] | % Structural aberrant cells [1] | % Structural aberration without gaps [3] | % Structural aberrant cells [3] | % Structural aberration without gaps [4] | % Structural aberrant cells [4] | % Structural aberration without gaps [5] | % Structural aberrant cells [5] | % Structural aberration without gaps [6] | % Structural aberrant cells [6]
−3%: Cytotoxicity (%) [6]
